Patent US5814612A, “Retinol derivatives and uses thereof” (priority 1992, dated 1998)

Assays:
lymphoblastoid 5/2 cells = assay: Conversion of 13,14DHR to 14HRR by lymphoblastoid cells; format: in vitro ADME, human; conditions: 10^-6 M, 1 and 2 hours, ITLB medium
Procedure: FIGS. 25A through 25D. 13,14DHR can be converted to 14HRR by lymphoblastoid cells. 200,000 5/2 cells/ml were incubated with or without 10^-6 M 13,14DHR added in serum-free ITLB medium. After 1 and 2 hours, cells pellets corresponding to 10 ml of culture were delipidated and the corresponding lipid fractions separated on an analytical C18 reversed-phase column according to FIG. 20. Peaks were identified according to their retention times and their UV absorption patterns.
Lymphoblastoid 5/2 cells devoid of retinol were cultured in the presence or absence of 10^-6 M 13,14DHR for 1 and 2 hours in ITLB medium. The retinoids extracted from the cell pellets were separated by HPLC according to FIG. 20. […] There was no 14HRR measurable in control cultures.

5/2 lymphoblastoid cells = assay: Kinetics of biosynthesis of 13,14DHR and 14HRR from 3H retinol in 5/2 lymphoblastoid cells; format: in vitro ADME, human
Procedure: FIG. 24. Kinetics of biosynthesis of 14HRR in lymphoblastoid cells. 50 ml ITLB 600,000 5/2 cells/ml were incubated with 20 μCi of ^3 H retinol in serum-free ITLB medium. Cell pellets corresponding to 10 ml of culture were delipidated at 20 minute intervals and the corresponding lipid fraction separated on an analytical C18 reversed-phase column (see FIG. 20). Radioactive peaks were identified by coelution with cold reference retinoids.
The kinetics of biosynthesis of 13,14DHR and 14HRR were determined in 5/2 lymphoblastoid cells. These cells were cultured in the presence of ^3 H retinol for different time periods, and the cell-associated retinoids extracted as referenced above. They were then chromatographed on an analytical C18 column as described in FIG. 20. The sizes of peaks emerging at 16.8 minutes, representing 13,14DHR, and 18.5 minutes, representing 14HRR, were measured and plotted in the bar diagram of FIG. 24.

T cells = assay: T cell activation and proliferation, retinol cofactor requirement; format: cell-based, murine
Procedure: They were seeded into 96-well flat-bottom plates at varying cellular densities in a final volume of 100 μl. In control experiments, cells were cultured in medium containing 10% FCS or 3% human serum and 5×10^-5 M 2ME. […] Cultures were carried out in duplicate. Plates were incubated at 37° C. in a humidified 5% CO2 atmosphere. Cellular proliferation was determined by [^3 H] thymidine uptake (0.5 uCi/well; New England Nuclear, Boston, Mass.) after the incubation times indicated for each experiment with a 4 hour labeling pulse. Cells were harvested onto glass filter and [^3 H]TdR incorporation was determined by liquid scintillation counting. The data presented are the means of duplicate or six replicate cultures. The restriction to duplicate measurements was necessary to conserve scarce 14HRR. […] Each experiment was repeated at least twice.

5/2 cells = assay: Growth-supporting activity on 5/2 cells in serum-free ITLB medium; format: cell-based, human
Procedure: The assay was done in 96-well microtiter plates in a final volume of 200 ul/well. The cells were cultured for 72 hours and cell growth determined by [^3 H] thymidine (0.8 μCi/well)labeling for the last 16 hours. Retinoids were added at the indicated concentrations at the initiation of culture and every 24 hours thereafter.
5/2 cells were grown in the absence of retinol in a medium containing the basic RPMI 1640 amino acid/salt mixture, insulin (5 μg/ml), transferrin (5 μg/ml), albumin (0.1%) and linoleic acid (10^-6 M) (ITLB). […] The dose-response curve shown in FIG. 26 indicates an effective concentration of 10^-7 M.

[1] = system: activated human thymocytes; conditions: cited from earlier work
CD8^+ T lymphocytes = assay: Proliferation of anti-CD3 plus IL-2 activated CD8+ T lymphocytes; format: cell-based, BALB/c mouse
Excerpt: (§1) Growth curves of lymph node T cells depleted of antigen-presenting cells (FIG. 17A) with and without 10^-6 M retinol at 2×10^5 and 5×10^4 cells/well. (FIG. 17B) Dose-responses elicited by different retinoids in cultures of lymph node T cells depleted of antigen-presenting cells. Also shown are the growth curves of CD4^+ (FIG. 17C) and CD8^+ T lymphocytes (FIG. 17D) in the presence of either retinol, 14HRR, human serum or in their absence.
(§2) T lymphocytes, purified as described, 5×10^4 /well, were activated with immobilized anti-CD3 antibody in ITLB medium. The indicated amounts of retinoids or human serum were added at initiation of cultures. […] 14HRR was added every 12 hours. DNA synthesis was measured by a 4 hour pulse with tritiated thymidine. SDs were ≤17%.
(§3) Mature T cells were obtained from pooled intestinal, axillary, inguinal and submandibular lymph nodes of 4 to 10-week-old BALB/c mice. To fractionate cells into CD4 and CD8 subsets and at the same time remove APC, a combination of adherence and complement lysis was used as follows:
(§4) The cell suspension in a volume of 2 ml was applied to a nylon wool column (40) (0.6 g of washed nylon fibers in the barrel of a 10 ml syringe) and incubated at 37° C. for 40 min. […] The success of the enrichment procedures was monitored cytofluorimetrically using FITC-conjugated anti-CD8 and PE-conjugated anti-CD4. […]

CD4^+ T lymphocytes = assay: Proliferation of anti-CD3 activated CD4+ T lymphocytes; format: cell-based, BALB/c mouse
Excerpt: as §1, §2, §3, §4

B lymphocytes = conditions: previous analyses with B lymphocytes (ref. 33); cited from earlier work
thymocytes = assay: Proliferation of anti-CD3 activated thymocytes in serum-free ITLB medium; format: cell-based, BALB/c mouse
Procedure: FIG. 14A: Purified BALB/c thymocytes were activated with immobilized anti-CD3e antibody and cultivated for four days in ITLB medium with or without retinol (3×10^-6 M), 14HRR (6×10^-7 M) (fresh 14HRR was added every 12 hours), human serum (3%) or FCS (10%) at the cellular densities shown. Proliferation was assayed by tritiated thymidine incorporation into cellular DNA.
FIG. 14B: BALB/c thymocytes (10^6 /ml) were added to microtiter plates coated with titrated amounts of anti-CD3e antibody with […] retinol or without, as indicated. Proliferation was measured in hexaduplicate wells on day 3 by ^3 H thymidine incorporation assay.
Purified thymocytes (5×10^5 cells/well) were stimulated by TCR crosslinking with immobilized anti-CD3e antibody (FIG. 15A) or 0.4 μg/ml Con A (FIG. 15B) in serum-free ITLB medium. The indicated amounts of retinoids were added either once at the beginning of the experiment (marked as "1×") or every 12 hours thereafter (marked as "6×"). DNA synthesis was measured after 72 hours by tritiated thymidine uptake as described.
Purified thymocytes (10^5 cells/well) were activated with anti-CD3 antibody in ITLB medium with or without retinol (3×10^-6 M), 14HRR (6×10^-7, added every 12 hours or human serum (3%)). DNA synthesis was measured daily by a 4 hour pulse of tritiated thymidine.
Thymocytes (5×10^4 /well) were activated by immobilized anti-CD3 mAb in medium ITLB. Retinol (2×10^-6 M) was added at initiation of culture, or delayed by 12 hours and 24 hours, respectively, or omitted altogether. ^3 H thymidine pulses of 4 hours were used to measure DNA synthesis of hexaduplicate wells.
Thymuses of 3 to 6-week-old BALB/c mice were teased in serum-free RPMI medium supplemented with 1% BSA, 10^-6 M linoleic acid and antibiotics. Depletion of accessory cells was achieved by two cycles of complement-dependent lysis with a mixture of anti-IA^d (5 μg/ml) and anti-IE^d (1:500 diluted ascites fluid). Briefly, cells were incubated on ice for 30 minutes with Ia antibodies, spun down, resuspended in 1:40 diluted rabbit complement, and incubated at 37° C. for 45 minutes. Incubations and two subsequent washes were carried out with RPMI medium containing 1% BSA. Cell viability was evaluated by trypan blue dye exclusion. To determine the extent of depletion of accessory cells, samples were stained with FITC-conjugated anti-Fc receptor antibody and analyzed by flow cytometry on a FACScan instrument (Becton Dickinson).
Cells were cultured in serum-free medium, referred to as ITLB, containing RPMI 1640 supplemented with 8×10^-7 M insulin (5 μg/ml), 7×10^-8 M transferrin (5 μg/ml), 2×10^-6 M linoleic acid, 2×10^-6 M delipidated BSA (0.12 mg/ml), 2 mM L-glutamine, 1 mM sodium pyruvate and antibiotics. They were seeded into 96-well flat-bottom plates at varying cellular densities in a final volume of 100 μl. In control experiments, cells were cultured in medium containing 10% FCS or 3% human serum and 5×10^-5 M 2ME. T cells and thymocytes were activated with immobilized, purified anti-mAb CD3e or by the addition of Con A in the presence or absence of different concentrations of retinoids. Unless indicated otherwise, retinoids were replenished every 12 hours to maintain a reasonably constant concentration of these labile compounds in culture. […] Cultures were carried out in duplicate. Plates were incubated at 37° C. in a humidified 5% CO2 atmosphere. Cellular proliferation was determined by [^3 H] thymidine uptake (0.5 uCi/well; New England Nuclear, Boston, Mass.) after the incubation times indicated for each experiment with a 4 hour labeling pulse.

lymph node T cells = assay: Proliferation of anti-CD3 activated lymph node T cells; format: cell-based, BALB/c mouse
Excerpt: as §1, §2, §3, §4
Cells were cultured in serum-free medium, referred to as ITLB, containing RPMI 1640 supplemented with 8×10^-7 M insulin (5 μg/ml), 7×10^-8 M transferrin (5 μg/ml), 2×10^-6 M linoleic acid, 2×10^-6 M delipidated BSA (0.12 mg/ml), 2 mM L-glutamine, 1 mM sodium pyruvate and antibiotics. […] The optimal concentration for stimulation of T cells was determined for each batch of anti-CD3 mAb and Con A. The optimal range of Con A was particularly narrow in serum-free medium (0.5-0.2 μg/ml) and varied with the cell density used. […] Cellular proliferation was determined by [^3 H] thymidine uptake (0.5 uCi/well; New England Nuclear, Boston, Mass.) after the incubation times indicated for each experiment with a 4 hour labeling pulse. […]

[2] = system: lymphoblastoid cells (LCL); conditions: cited from earlier work

SMILES	conversion to 14HRR (lymphoblastoid 5/2 cells)	order of metabolite production (5/2 lymphoblastoid cells)	ability to substitute for retinol in T cell activation (words) (T cells)	restoration of proliferation in absence of retinol (5/2 cells)	support of growth of activated human thymocytes [1]	response of CD8+ subset to anti-CD3 plus IL-2 (CD8^+ T lymphocytes)	response of CD4+ subset to anti-CD3 (CD4^+ T lymphocytes)	active concentration (B lymphocytes)	effect of delayed addition (thymocytes; addition delayed by 24 hours)	effectiveness relative to retinol (thymocytes; anti-CD3, 14HRR at 12 hour intervals)	optimally effective dose (thymocytes; given once in a 3-day culture)	optimally effective dose (thymocytes; provided at 12 hour intervals)	stimulation of lymph node T cells (lymph node T cells)	support of growth of LCL in serum-free medium [2]
CC1=C(/C=C/C(C)=C/C=C/C(C)(O)C(O)CO)C(C)(C)CCC1 (stereo not drawn) [13,14DHR, 13,14-dihydroxy-retinol]	produced 14HRR	production of 13,14DHR precedes that of 14HRR	can effectively substitute for retinol	proliferation was restored as well										
CC1=C(/C=C/C(C)=C/C=C/C(C)=C/C=O)C(C)(C)CCC1 [all-trans retinal]			can substitute for retinal		The same is true for activated human thymocytes	responded to the activating signal	responded to the activating signal	200 nM	complete failure of activation	equally effective as all-trans retinol	2 µM	0.2 µM	dependent on the presence of retinal	support the growth of LCL in serum-free medium
